Assay results from patent US20260199309A1, “COMPOUNDS FOR THE TREATMENT OF CENTRA NERVOUS SYSTEM DISORDERS” (Autifony Therapeutics Limited, priority 2022, published 2026).

Experiments:
[1] = In vitro metabolic stability (CLint), rat; assay type: in vitro ADME; details: intrinsic clearance, incubation 0-30 minutes at 37° C. with NADPH regenerating system
Experimental: (§1) The objective of this study was to determine metabolic stability of test items in preclinical species and human liver microsomes. Verapamil and dextromethorphan were used as positive controls for microsomal incubation.
(§2) Incubation medium was prepared by combining 11.2 mL of potassium phosphate monobasic and 38.8 mL of potassium phosphate dibasic, diluted to 1 L with water. Cryopreserved microsomes were thawed and kept on ice until use. Microsomes were then diluted in incubation to a protein concentration of 0.56 mg/mL. Cells were centrifuged, re-suspended in medium and counted by means of a haemocytometer. Cell viability was measured using the Trypan Blue exclusion test.
(§3) NADPH regenerating system solution was prepared by dissolving 1.7 mg of NADP, 7.8 mg of G6P and 6 units of G6P-Dehydrogenase in 1 mL of 2% sodium bicarbonate solution (prepared by dissolving 20 g of NaHCO3 in 1 L of water).
(§4) Test compounds were separately dissolved in DMF to obtain 10 mM stock solutions that were further diluted in water/acetonitrile 50/50 (v/v) to obtain the corresponding 50 uM working solutions. Verapamil and dextromethorphan were dissolved in DMF in order to obtain a 10 mM verapamil solution and 10 mM dextromethorphan solution. These solutions were then diluted in the incubation medium in order to obtain a 50 uM verapamil working solution and a 50 uM dextromethorphan working solution.
(§5) 800 μL-aliquots of NADPH regenerating system were pre-warmed at 37° C. for 5 minutes. […]
(§6) Metabolic stability was calculated from the peak area ratio of the remaining test compound with internal standard versus time. The intrinsic clearance (CLint) was determined from the first order elimination constant k (min^−1) (obtained from GraphPad by plotting the natural logarithm of the peak area ratio of the remaining test item with internal standard versus time), using the actual volume of the incubation V (mL), the amount of hepatocytes in the incubation M (million cells) and the hepatocellularity number per g liver Hn (120 for human).

CYP2D6 = CYP2D6 (Homo sapiens, UniProt P10635); test: CYP450 inhibition, pro-fluorescent probe substrate (2D6/MMMC); assay type: in vitro ADME; details: recombinant human CYP450, substrate MMMC; top concentration 5.00E-05
CYP2D6, sequence (P10635 whole entry): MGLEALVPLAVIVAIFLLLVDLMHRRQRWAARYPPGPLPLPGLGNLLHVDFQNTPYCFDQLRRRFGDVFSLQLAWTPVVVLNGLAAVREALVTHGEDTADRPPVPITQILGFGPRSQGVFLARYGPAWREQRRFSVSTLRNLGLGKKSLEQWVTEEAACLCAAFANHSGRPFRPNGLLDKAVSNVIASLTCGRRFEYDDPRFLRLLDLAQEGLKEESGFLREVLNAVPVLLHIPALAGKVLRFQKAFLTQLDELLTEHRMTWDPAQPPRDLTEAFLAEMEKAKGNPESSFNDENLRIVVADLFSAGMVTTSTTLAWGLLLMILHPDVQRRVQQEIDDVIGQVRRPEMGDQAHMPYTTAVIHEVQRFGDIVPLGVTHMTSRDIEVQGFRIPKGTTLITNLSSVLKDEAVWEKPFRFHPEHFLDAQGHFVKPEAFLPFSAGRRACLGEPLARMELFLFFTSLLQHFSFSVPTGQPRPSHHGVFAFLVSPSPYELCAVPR

CYP2C9 = CYP2C9 (Homo sapiens, UniProt P11712); test: CYP450 inhibition, pro-fluorescent probe substrate (2C9/FCA); assay type: in vitro ADME; details: recombinant human CYP450, substrate FCA; top concentration 5.00E-05
CYP2C9, sequence (P11712 whole entry): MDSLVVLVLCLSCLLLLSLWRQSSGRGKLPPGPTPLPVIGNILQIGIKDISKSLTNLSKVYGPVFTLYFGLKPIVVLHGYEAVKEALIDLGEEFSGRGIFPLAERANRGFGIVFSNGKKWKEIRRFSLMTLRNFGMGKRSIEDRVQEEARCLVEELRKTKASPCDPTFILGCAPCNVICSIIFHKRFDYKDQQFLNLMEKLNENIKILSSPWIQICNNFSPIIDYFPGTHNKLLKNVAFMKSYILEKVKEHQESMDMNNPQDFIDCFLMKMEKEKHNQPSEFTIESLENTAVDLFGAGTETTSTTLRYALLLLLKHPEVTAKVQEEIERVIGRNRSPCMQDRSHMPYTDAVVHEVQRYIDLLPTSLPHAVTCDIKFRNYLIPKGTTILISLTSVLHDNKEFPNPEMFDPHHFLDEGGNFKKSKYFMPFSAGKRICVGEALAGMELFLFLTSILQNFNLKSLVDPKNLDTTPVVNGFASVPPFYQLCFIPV

CYP3A4 = target: T1, CYP3A4 (Homo sapiens, UniProt P08684); test: CYP450 inhibition, pro-fluorescent probe substrate (3A4/7BQ); assay type: in vitro ADME; details: recombinant human CYP450, substrate 7-BQ; top concentration 5.00E-05; read-out: CYP3A47BQ
T1 construct: purchased
T1 sequence (P08684 whole entry): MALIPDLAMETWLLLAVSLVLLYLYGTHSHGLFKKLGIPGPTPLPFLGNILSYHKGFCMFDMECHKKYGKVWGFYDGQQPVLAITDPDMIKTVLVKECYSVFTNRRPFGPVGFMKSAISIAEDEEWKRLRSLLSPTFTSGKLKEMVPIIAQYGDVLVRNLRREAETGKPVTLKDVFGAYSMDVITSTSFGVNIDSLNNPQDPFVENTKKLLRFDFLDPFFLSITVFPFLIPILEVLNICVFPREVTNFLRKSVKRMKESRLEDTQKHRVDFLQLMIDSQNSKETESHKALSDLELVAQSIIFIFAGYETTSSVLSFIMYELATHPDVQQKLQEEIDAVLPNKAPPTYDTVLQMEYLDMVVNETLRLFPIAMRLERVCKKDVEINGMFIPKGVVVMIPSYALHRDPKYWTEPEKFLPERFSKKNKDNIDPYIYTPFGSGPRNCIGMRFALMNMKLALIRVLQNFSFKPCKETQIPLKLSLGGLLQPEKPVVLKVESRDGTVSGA

CYP2C19 = CYP2C19 (Homo sapiens, UniProt P33261); test: CYP450 inhibition, pro-fluorescent probe substrate (2C19/BMC); assay type: in vitro ADME; details: recombinant human CYP450, substrate BMC; top concentration 5.00E-05
CYP2C19, sequence (P33261 whole entry): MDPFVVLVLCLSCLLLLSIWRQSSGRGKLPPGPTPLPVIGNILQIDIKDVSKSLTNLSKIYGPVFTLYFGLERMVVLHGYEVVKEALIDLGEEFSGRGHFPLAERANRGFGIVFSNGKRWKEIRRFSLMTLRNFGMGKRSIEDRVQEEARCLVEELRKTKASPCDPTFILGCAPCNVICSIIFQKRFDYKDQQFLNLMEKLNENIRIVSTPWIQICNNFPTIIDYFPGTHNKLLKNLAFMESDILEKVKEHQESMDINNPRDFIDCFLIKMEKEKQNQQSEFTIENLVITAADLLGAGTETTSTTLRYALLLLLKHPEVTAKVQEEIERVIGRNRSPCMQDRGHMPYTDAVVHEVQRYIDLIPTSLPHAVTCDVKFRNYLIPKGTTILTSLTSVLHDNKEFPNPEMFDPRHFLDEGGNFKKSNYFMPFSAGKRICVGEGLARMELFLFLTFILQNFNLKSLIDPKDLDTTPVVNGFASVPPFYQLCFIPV

[2] = In vitro metabolic stability (CLint), human; assay type: in vitro ADME; details: intrinsic clearance, incubation 0-30 minutes at 37° C. with NADPH regenerating system
Experimental: as §1, §2, §3, §4, §5, §6

[3] = target: T2, human Kv3.1 channels (hKv3.1) (Homo sapiens, UniProt P48547); test: Kv3.1 channel modulation, IonWorks Quattro planar array electrophysiology; assay type: cell-based; details: HEK-293 cells expressing human Kv3.1; for EC50: read-out: Kv3.1 pEC50 (converted); for Kv3.1 max R %: normalised to maximum effect of 50 microM reference compound
T2 construct: expressed in transfected cells
T2 sequence (P48547 1-511): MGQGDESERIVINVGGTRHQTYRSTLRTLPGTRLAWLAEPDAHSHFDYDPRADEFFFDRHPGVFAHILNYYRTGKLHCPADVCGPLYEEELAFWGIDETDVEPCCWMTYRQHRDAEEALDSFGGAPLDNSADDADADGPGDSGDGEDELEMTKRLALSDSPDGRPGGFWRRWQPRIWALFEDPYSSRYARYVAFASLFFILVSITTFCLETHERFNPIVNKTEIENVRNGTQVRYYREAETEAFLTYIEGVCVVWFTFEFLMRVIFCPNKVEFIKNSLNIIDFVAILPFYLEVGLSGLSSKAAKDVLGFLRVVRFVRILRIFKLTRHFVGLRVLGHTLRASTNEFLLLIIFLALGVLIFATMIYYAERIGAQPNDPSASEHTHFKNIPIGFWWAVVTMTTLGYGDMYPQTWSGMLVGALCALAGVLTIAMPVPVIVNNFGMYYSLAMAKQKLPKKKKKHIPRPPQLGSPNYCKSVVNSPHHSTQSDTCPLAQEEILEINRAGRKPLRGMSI

[4] = currents at −15 mV voltage step, normalised to 50 microM reference compound and vehicle

| Compound | CLi rat [1] | IC50 (CYP2D6) | IC50 (CYP2C9) | IC50 (CYP3A4) | IC50 (CYP2C19) | CLi human [2] | EC50 [3, 4] | Kv3.1 max R % [3] | Kv3.1 pEC50 [3, 4] |
| --- | --- | --- | --- | --- | --- | --- | --- | --- | --- |
| CC1(C)NC(=O)N(c2ccc(Oc3cccc(OC(F)(F)F)c3)nc2N)C1=O [Example 9, 3-[2-amino-6-[3-(trifluoromethoxy)phenoxy]-3-pyridyl]-5,5-dimethyl-imidazolidine-2,4-dione] | <0.5 mL/min/g liver | > 50 µM | > 50 µM | > 50 µM | 21 µM | <0.5 mL/min/g liver | 2.51 µM | 118% |  |
| Cc1ccc(Oc2ccc(N3C(=O)NC(C)(C)C3=O)c(N)n2)c2c1OCC21CC1 [Example 1, 3-[2-amino-6-(7-methylspiro[2H-benzofuran-3,1′-cyclopropane]-4-yl)oxy-3-pyridyl]-5,5-dimethyl-imidazolidine-2,4-dione] | 5.4 mL/min/g liver | > 50 µM | 8.6 µM | > 50 µM | > 50 µM | 1.1 mL/min/g liver | 0.251 µM | 183% | 6.6 |
| COc1nc(Oc2ccc(C)c3c2C2(CC2)CO3)ccc1N1C(=O)NC(C)(C)C1=O [Reference Example 2, reference compound] | 8.7 mL/min/g liver | > 50 µM | 0.1 µM | > 50 µM | 1.1 µM | 2.0 mL/min/g liver | 1 µM |  |  |
